# Data published in ChEMBL document CHEMBL1137947, “Novel nevirapine-like inhibitors with improved activity against NNRTI-resistant HIV: 8-heteroarylthiomethyldipyridodiazepinone derivatives” (Bioorg Med Chem Lett, 2004).
# Columns and labels:
# [1] = tested on: Human immunodeficiency virus 1; assay: Effective concentration against wild-type HIV-1; assay type: functional, organism-based
# [2] = tested on: Human immunodeficiency virus 1; assay: Inhibitory activity against HIV-1 mutant strain K103N/Y181C; assay type: functional, organism-based
# [3] = biological target: Human immunodeficiency virus type 1 reverse transcriptase (Human immunodeficiency virus 1, UniProt Q72547); assay: Inhibitory activity against wild type reverse transcriptase (WT RT) of HIV-1
# Cytochrome P450 1A2 [4] = biological target: T1, Cytochrome P450 1A2 (Homo sapiens, UniProt P05177); assay: Inhibition of CYP450 (Cytochrome P450) 1A2; assay type: ADME
# T1 sequence (P05177 whole entry): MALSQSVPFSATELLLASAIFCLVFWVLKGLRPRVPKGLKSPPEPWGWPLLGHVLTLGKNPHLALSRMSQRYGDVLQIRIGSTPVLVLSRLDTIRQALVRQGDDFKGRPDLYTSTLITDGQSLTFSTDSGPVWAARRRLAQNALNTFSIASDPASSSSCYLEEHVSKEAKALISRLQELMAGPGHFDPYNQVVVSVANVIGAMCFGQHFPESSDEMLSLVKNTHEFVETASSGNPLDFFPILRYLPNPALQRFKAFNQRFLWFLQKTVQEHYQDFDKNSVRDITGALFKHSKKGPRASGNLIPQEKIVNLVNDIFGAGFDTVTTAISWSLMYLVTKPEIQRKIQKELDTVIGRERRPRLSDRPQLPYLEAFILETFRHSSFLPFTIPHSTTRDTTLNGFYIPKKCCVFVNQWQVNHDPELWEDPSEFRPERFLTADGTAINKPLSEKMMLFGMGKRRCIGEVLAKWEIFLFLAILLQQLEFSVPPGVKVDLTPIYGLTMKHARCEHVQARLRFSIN
# Cytochrome P450 2C19 = Cytochrome P450 2C19 (Homo sapiens, UniProt P33261); assay: Inhibition of cytochrome P450 2C19; assay type: ADME
# Cytochrome P450 2C9 [5] = biological target: T2, Cytochrome P450 2C9 (Homo sapiens, UniProt P11712); assay: Inhibition of CYP450 (Cytochrome P450) 2C9; assay type: ADME
# Homo sapiens = species: Homo sapiens; assay: Half-life for oxidative metabolic stability was determined using male human; conditions: in vitro
# Cytochrome P450 3A4 [6] = biological target: T3, Cytochrome P450 3A4 (Homo sapiens, UniProt P08684); assay: Inhibition of CYP450 (Cytochrome P450) 3A4 with fluorogenic substrate BFC; assay type: ADME
# [7] = tested on: Human immunodeficiency virus 1; assay: Effective concentration against mutant K103N/Y181C of HIV-1; assay type: functional, organism-based
# Cytochrome P450 3A4 [8] = biological target: T3, Cytochrome P450 3A4; assay: Inhibition of CYP450 (Cytochrome P450) 3A4 with fluorogenic substrate BQ; assay type: ADME
# [9] = Half-life for oxidative metabolic stability was determined using rat liver microsomes; assay type: ADME, Microsome
# Cytochrome P450 2D6 [10] = biological target: T4, Cytochrome P450 2D6 (Homo sapiens, UniProt P10635); assay: Inhibition of CYP450 (Cytochrome P450) 2D6; assay type: ADME
# [11] = Bioavailability in rats was evaluated; assay type: ADME, organism-based; conditions: rat, in vivo; read-out: Bioavailabiility
# Cytochrome P450 2C9 [12] = biological target: T2, Cytochrome P450 2C9; assay: Inhibition of cytochrome P450 2C9; assay type: ADME
# Cytochrome P450 2D6 [13] = biological target: T4, Cytochrome P450 2D6; assay: Inhibition of cytochrome P450 2D6; assay type: ADME
# [14] = Maximum concentration was evaluated in rats; assay type: ADME, organism-based; conditions: rat, in vivo
# [15] = Volume of distribution at steady state was evaluated in rats; assay type: ADME, organism-based; conditions: rat, in vivo; read-out: Vss
# [16] = Half-life consistent with the observed metabolic steady state in rats; assay type: ADME, organism-based; conditions: rat, in vivo
# [17] = Plasma clearance in rats; assay type: ADME, organism-based; conditions: rat
# Cytochrome P450 1A2 [18] = biological target: T1, Cytochrome P450 1A2; assay: Inhibition of cytochrome P450 1A2; assay type: ADME
# T2 sequence (P11712 whole entry): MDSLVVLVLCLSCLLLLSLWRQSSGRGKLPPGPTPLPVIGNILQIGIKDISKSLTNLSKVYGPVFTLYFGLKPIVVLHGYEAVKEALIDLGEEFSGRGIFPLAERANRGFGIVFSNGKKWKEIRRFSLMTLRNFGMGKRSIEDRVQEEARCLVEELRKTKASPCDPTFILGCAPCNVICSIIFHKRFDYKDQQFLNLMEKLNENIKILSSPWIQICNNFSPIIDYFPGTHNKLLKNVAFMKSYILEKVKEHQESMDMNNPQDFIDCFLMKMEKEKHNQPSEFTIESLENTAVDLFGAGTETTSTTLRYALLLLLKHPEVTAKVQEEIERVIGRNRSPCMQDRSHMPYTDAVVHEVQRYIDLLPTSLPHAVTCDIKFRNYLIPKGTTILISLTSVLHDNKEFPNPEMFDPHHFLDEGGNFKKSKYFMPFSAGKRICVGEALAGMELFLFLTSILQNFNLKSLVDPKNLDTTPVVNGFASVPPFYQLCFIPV
# Cytochrome P450 2C19, sequence (P33261 whole entry): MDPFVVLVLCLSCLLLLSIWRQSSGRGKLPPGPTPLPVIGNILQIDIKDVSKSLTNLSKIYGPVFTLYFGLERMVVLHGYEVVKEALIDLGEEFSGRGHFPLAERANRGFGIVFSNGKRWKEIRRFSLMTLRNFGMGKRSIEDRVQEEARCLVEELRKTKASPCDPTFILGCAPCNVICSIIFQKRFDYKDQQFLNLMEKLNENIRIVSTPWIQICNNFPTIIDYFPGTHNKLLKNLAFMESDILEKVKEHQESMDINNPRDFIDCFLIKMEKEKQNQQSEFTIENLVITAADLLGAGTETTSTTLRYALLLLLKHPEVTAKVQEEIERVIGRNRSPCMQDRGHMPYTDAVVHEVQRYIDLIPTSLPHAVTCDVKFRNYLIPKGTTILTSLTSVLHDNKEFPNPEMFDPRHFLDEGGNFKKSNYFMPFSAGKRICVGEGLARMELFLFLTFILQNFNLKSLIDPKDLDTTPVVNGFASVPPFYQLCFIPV
# T3 sequence (P08684 whole entry): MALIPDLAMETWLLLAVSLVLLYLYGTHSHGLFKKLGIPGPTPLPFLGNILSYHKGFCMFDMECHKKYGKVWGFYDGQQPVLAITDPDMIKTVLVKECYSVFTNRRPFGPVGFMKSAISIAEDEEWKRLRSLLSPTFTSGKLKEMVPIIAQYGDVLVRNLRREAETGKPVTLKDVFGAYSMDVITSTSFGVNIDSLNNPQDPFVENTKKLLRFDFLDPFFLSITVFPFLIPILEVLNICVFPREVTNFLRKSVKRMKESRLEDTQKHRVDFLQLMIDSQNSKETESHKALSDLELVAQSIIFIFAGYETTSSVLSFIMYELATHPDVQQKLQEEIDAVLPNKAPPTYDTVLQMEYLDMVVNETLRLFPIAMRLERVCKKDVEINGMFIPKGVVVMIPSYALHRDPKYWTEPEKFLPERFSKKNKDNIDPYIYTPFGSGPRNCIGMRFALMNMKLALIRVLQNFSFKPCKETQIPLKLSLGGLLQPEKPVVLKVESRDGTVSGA
# T4 sequence (P10635 whole entry): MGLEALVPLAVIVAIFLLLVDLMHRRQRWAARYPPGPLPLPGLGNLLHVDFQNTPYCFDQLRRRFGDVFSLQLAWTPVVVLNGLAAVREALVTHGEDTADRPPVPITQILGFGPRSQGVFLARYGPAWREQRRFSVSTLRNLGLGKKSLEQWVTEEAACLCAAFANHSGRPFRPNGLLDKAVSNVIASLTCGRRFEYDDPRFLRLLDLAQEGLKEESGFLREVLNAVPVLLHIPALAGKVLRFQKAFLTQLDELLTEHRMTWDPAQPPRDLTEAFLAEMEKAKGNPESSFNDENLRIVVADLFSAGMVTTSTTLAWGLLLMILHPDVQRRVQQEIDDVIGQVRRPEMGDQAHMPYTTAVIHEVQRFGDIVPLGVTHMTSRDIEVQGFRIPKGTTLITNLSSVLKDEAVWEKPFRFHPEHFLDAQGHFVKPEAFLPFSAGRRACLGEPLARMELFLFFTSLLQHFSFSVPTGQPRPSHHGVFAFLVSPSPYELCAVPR
structure (smiles),measurement,setting,value
CCN1c2ncc(CSc3nc4ccccc4o3)cc2C(=O)Nc2c(C)cc(Cl)nc21,EC50,[1],2.7 nM
same,IC50,[2],230 nM
same,IC50,[3],8 nM
CCN1c2ncc(CSc3cc(C)nc(C)c3)cc2C(=O)Nc2c(C)ccnc21,IC50,Cytochrome P450 1A2 [4],> 30000 nM
same,IC50,Cytochrome P450 2C19,26000 nM
same,EC50,[1],0.46 nM
same,IC50,Cytochrome P450 2C9 [5],7400 nM
same,half-life,Homo sapiens,9 min
same,IC50,Cytochrome P450 3A4 [6],1600 nM
same,EC50,[7],12 nM
same,IC50,Cytochrome P450 3A4 [8],10000 nM
same,half-life,[9],9 min
same,IC50,[2],170 nM
same,IC50,[3],4.2 nM
same,IC50,Cytochrome P450 2D6 [10],> 30000 nM
CCN1c2ncc(CSc3cc(C)nc(C)c3)cc2C(=O)Nc2c(C)cc(Cl)nc21,bioavailability,[11],76%
same,IC50,Cytochrome P450 2C19,4200 nM
same,IC50,Cytochrome P450 2C9 [12],2600 nM
same,EC50,[1],1.2 nM
same,IC50,Cytochrome P450 2D6 [13],27000 nM
same,half-life,Homo sapiens,7 min
same,Cmax,[14],800 nM
same,Vd,[15],4.68 L/kg
same,IC50,Cytochrome P450 3A4 [6],2300 nM
same,half-life,[16],90 min
same,EC50,[7],14 nM
same,IC50,Cytochrome P450 3A4 [8],8100 nM
same,half-life,[9],4 min
same,clearance,[17],57 mL/min/kg
same,IC50,[2],60 nM
same,IC50,Cytochrome P450 1A2 [18],23000 nM
same,IC50,[3],7 nM
CCN1c2ncc(CSc3ccncc3)cc2C(=O)Nc2c(C)cc(Cl)nc21,EC50,[1],0.48 nM
same,IC50,[2],80 nM
same,IC50,[3],2.2 nM
CCN1c2ncc(CSc3ccncc3C)cc2C(=O)Nc2c(C)cc(Cl)nc21,EC50,[1],3.1 nM
same,IC50,[2],1640 nM
same,IC50,[3],11 nM
CCN1c2ncc(CSc3ccncc3)cc2C(=O)N(C)c2ccc(Cl)nc21,EC50,[1],0.31 nM
same,IC50,[2],26 nM
same,IC50,[3],3 nM
CCN1c2ncc(CSc3cncnc3)cc2C(=O)Nc2c(C)cc(Cl)nc21,EC50,[1],7.8 nM
same,IC50,[2],5000 nM
same,IC50,[3],26 nM
CCN1c2ncc(CSc3ccnc(C)c3)cc2C(=O)Nc2c(C)cc(Cl)nc21,EC50,[1],3.4 nM
same,IC50,[2],310 nM
same,IC50,[3],27 nM
Cc1cc(SCc2cnc3c(c2)C(=O)Nc2c(C)cc(Cl)nc2N3C2CC2)cc(C)n1,EC50,[1],2.2 nM
same,EC50,[7],104 nM
same,IC50,[2],280 nM
same,IC50,[3],12 nM
CCN1c2ncc(CSc3cc(C)nc(C)c3)cc2C(=O)Nc2c(C)cc(F)nc21,IC50,Cytochrome P450 2C19,5400 nM
same,IC50,Cytochrome P450 2C9 [12],4500 nM
same,EC50,[1],1 nM
same,half-life,Homo sapiens,5 min
same,IC50,Cytochrome P450 3A4 [6],2500 nM
same,EC50,[7],21 nM
same,IC50,Cytochrome P450 3A4 [8],10000 nM
same,half-life,[9],5 min
same,IC50,[2],120 nM
same,IC50,Cytochrome P450 1A2 [18],26000 nM
same,IC50,[3],6.9 nM
same,IC50,Cytochrome P450 2D6 [10],27000 nM
CCN1c2ncc(CSc3nc(C)cc(C)n3)cc2C(=O)Nc2c(C)cc(Cl)nc21,EC50,[1],1.5 nM
same,IC50,[2],320 nM
same,IC50,[3],6 nM
